Measured values from patent publication US20250262305A1 (Aegis Therapeutics, LLC, priority 2018, published 2025).
Read-outs that look alike come from different tables or passages of the source.

Tests used:
[1] = cited from earlier work; for Cbaseline: Mean ± SD
clinical = settings: human, in vivo, pH 4, tmax
Description: Study Design. A Phase 1, open-label, randomized, single-dose, two-treatment, crossover study was carried out that consisted of a screening period, baseline period, and an open-label treatment period. In the screening period, subjects underwent screening within 21 days prior to entering into the open-label treatment phase of the study.
Safety assessments were performed on each study day and subjects released after discharge assessments on Day 1. Subjects were followed for 6 hours after the administration of the last dose of study drug.
Plasma samples from all subjects that completed two periods of the study were analyzed. […] Actual sampling times were recorded.
(§1) Study Drugs and Administration.
(§2) Each 100 μL spray was administered to the left nostril via a commercially-available multiple dose nasal spray device marketed by Aptar Pharma. Priming of the device (activation 5 times) was done in a hood or priming box within 30 minutes prior to dosing the subject.
(§3) Pharmacokinetic Analysis.
Non-GCP pharmacokinetic analysis was performed using WinNonlin version 7.0. […] Baseline corrected Cmax was calculated from the uncorrected Cmax−PreDose concentration. Baseline corrected AUC0-t was calculated from the uncorrected AUC0-t−PreDose concentration×tlast. […] The point estimates and confidence limits will be exponentiated back to the original scale.

[2] = male, human, in vivo
Description: In the Screening Period, subjects underwent screening within 28 days prior to entering into the study.
as §1, §2
Participants. […] Plasma samples from all subjects that complete the study were analyzed.
as §3

[3] = single 0.3 mg doses, intranasal and intramuscular; healthy volunteers

- Tmax (clinical): 53 min
SMILES: CNC[C@H](O)c1ccc(O)c(O)c1 [Epinephrine, (R)-4-(1-Hydroxy-2-(methylamino)ethyl)benzene-1,2-diol]
- Cbaseline ([1]; Intramuscular (IM) 0.3 mg): 35 ± 23 pg/mL
- Cbaseline ([1]; Intranasal (IN) 5 mg): 8 ± 6 pg/mL
- clearance from the plasma ([1]; Srisawat's 5 mg intranasal formulation (FIG. 2)): cleared from the plasma almost entirely in about two hours
- blood level of epinephrine ([1]; intranasal dose level of 2.5 mg and below): no blood level of epinephrine
- systemic absorption of epinephrine via the IN route ([1]; intranasal, dose range of Srisawat (FIG. 1)): significant systemic absorption of epinephrine via the IN route was observed only at 5 mg
- rate of absorption [2]: rapid, IM-injection-like rate of absorption in the first 20 minutes
- adverse events [3]: no related adverse events reported
